This is an account of results in patent US20120245137A1 (Zalicus Pharmaceuticals Ltd., priority 2009, published 2012).

Where two headings read alike, the source gives them in different places. Where only a bound is given, the exact number is not on record here.

Holding throughout (type): cell-based
One experiment addresses CAv1.2 (Homo sapiens, UniProt Q13936). Briefly: FLIPR data, CAv1.2 channel blocking (Table 6). The conditions noted are these: for CAv1.2 IC50 Ratio closed/inact.: ratio closed/inactivated IC50.
For experiment [1], the target named is T-type calcium channel (Homo sapiens, UniProt O95180). Briefly: T-type channel blocking, FLIPR data (Table 6). The text has this: (§1) Another method, high-throughput spectrophotometric assay, utilizes loading of the cell lines with a fluorescent dye sensitive to intracellular calcium concentration and subsequent examination of the effects of compounds on the ability of depolarization by potassium chloride or other means to alter intracellular calcium levels.
T-type calcium channel (Homo sapiens, UniProt O95180), sequence (O95180 whole entry): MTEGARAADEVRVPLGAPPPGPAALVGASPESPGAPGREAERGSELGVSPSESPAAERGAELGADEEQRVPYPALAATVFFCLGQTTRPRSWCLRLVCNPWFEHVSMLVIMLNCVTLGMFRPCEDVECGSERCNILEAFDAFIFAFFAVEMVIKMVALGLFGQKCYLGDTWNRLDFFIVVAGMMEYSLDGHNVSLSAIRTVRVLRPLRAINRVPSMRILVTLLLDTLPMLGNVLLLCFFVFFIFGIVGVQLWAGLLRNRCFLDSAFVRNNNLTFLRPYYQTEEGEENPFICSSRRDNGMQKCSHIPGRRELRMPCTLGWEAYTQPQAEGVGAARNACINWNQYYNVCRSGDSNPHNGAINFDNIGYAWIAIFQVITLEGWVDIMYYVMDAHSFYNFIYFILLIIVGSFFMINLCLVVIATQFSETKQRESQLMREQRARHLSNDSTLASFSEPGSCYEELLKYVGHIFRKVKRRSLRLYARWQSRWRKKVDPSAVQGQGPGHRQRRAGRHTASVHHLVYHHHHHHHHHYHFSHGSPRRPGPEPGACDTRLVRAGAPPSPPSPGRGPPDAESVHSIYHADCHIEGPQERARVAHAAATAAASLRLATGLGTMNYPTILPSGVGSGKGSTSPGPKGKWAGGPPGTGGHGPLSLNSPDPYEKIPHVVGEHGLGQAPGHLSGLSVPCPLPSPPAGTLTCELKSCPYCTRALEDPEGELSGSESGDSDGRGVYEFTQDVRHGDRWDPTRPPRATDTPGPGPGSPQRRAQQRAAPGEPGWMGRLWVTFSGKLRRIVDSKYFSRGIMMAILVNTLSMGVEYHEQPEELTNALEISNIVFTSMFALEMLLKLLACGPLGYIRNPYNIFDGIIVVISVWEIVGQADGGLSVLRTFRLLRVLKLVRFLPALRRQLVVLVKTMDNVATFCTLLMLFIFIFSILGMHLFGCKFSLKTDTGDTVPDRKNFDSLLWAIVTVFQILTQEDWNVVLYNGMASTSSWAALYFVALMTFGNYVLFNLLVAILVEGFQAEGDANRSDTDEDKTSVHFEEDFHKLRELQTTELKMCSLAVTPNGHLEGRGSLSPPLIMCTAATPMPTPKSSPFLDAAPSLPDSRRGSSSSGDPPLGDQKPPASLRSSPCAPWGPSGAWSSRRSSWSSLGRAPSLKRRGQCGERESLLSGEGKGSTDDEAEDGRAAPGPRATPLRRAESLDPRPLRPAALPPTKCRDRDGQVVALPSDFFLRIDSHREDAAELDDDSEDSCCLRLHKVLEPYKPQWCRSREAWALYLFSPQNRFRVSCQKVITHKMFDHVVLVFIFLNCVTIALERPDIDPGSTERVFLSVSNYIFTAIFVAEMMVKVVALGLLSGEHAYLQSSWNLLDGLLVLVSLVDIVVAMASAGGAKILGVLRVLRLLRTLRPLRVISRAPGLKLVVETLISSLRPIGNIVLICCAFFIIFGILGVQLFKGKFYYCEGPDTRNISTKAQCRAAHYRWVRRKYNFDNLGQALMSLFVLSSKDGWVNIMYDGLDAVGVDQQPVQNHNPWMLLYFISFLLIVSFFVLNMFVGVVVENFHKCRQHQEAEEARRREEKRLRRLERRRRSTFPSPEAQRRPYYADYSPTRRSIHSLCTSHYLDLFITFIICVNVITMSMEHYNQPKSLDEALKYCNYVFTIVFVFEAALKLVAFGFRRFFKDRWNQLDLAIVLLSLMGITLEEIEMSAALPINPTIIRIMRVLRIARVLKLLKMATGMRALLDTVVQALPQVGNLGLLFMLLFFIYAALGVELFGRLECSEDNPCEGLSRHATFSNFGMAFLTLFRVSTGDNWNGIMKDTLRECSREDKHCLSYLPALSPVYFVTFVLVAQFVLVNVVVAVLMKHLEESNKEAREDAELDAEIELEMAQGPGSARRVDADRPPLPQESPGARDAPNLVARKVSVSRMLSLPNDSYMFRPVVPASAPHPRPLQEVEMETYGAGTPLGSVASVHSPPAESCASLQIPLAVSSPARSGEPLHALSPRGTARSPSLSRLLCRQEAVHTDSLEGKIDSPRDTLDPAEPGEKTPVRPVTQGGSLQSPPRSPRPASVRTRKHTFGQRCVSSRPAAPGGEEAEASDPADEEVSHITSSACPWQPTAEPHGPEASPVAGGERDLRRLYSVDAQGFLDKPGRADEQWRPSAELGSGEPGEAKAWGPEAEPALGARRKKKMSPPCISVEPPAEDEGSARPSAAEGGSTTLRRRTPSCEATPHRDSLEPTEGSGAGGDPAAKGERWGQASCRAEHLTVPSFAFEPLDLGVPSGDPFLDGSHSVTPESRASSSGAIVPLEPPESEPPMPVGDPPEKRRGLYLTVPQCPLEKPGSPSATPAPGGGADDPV

The target in experiment [2] is T-type calcium channel (Homo sapiens, UniProt O43497). Description: T-type channel blocking, FLIPR data (Table 6). The following applies: CAv3.1.
T-type calcium channel (Homo sapiens, UniProt O43497), sequence (O43497 whole entry): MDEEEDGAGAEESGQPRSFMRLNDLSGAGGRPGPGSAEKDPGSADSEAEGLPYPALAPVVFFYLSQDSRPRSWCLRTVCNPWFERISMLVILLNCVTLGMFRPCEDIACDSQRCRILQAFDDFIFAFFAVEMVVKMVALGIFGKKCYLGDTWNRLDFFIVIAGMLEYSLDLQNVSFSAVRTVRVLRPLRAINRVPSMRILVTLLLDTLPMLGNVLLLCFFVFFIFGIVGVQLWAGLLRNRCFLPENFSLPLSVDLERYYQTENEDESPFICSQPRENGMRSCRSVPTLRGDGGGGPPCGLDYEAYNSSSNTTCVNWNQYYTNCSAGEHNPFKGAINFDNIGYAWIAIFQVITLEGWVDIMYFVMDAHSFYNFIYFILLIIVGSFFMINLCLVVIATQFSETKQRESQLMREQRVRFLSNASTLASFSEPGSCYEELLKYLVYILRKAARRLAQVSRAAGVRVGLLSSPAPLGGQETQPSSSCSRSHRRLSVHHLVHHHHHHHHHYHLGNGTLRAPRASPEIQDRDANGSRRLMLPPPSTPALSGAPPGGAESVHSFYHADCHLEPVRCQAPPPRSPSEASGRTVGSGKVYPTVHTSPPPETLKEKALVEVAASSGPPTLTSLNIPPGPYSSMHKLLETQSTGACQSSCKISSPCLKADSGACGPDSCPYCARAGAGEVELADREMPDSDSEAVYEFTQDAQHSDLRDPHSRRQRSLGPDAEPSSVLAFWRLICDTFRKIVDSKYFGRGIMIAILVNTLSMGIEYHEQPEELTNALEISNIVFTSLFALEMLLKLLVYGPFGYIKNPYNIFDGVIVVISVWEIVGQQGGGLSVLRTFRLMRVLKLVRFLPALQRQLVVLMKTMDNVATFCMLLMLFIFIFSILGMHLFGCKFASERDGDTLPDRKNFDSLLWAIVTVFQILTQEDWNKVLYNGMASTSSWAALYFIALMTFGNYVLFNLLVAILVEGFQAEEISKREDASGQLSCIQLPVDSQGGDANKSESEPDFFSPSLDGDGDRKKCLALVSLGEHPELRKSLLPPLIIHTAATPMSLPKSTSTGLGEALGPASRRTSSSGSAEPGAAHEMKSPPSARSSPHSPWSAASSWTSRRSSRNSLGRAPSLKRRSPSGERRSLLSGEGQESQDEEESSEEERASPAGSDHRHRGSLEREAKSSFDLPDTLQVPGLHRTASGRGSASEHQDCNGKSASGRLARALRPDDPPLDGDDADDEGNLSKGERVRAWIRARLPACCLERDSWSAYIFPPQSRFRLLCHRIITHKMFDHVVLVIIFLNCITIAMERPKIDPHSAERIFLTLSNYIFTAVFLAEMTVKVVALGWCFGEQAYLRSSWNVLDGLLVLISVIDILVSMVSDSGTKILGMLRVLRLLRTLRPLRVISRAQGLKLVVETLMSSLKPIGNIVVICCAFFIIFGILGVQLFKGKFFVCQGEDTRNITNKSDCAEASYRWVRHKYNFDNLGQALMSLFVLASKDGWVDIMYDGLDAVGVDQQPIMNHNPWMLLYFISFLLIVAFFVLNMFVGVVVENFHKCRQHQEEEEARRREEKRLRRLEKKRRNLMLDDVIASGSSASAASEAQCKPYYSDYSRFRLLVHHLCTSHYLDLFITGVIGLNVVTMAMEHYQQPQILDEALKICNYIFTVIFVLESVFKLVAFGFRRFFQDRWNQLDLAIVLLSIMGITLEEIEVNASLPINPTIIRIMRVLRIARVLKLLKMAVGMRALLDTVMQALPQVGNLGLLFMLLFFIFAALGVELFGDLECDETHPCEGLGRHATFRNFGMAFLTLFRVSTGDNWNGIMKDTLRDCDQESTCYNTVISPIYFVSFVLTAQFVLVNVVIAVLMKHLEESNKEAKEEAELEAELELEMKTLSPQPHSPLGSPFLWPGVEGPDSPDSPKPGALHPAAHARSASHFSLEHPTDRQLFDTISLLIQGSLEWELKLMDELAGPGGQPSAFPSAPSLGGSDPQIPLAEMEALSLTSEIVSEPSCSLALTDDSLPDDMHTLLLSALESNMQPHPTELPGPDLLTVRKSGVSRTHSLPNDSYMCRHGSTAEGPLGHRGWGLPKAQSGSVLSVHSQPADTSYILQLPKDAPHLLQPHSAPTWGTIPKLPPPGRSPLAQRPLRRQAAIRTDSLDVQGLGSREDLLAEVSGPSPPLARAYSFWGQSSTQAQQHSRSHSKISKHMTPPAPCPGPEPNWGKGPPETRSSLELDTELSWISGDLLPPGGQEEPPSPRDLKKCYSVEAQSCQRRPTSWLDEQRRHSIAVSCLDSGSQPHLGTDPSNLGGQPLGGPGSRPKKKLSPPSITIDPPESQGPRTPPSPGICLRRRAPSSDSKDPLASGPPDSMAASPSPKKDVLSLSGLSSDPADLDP
From the text: as §1

In a further experiment the target is Human Cav 2.2 channels (Homo sapiens, UniProt Q00975). Briefly: Fluorescent assay for CaV2.2 channels using potassium depolarization (VIPR/FLIPR). The conditions noted are these: FLIPR data. A digest of the protocol: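 HEK293 cells stably expressing human Cav2.2 with α2δ and β subunits plus Kir2.3 were loaded with fluo-4 and incubated 30 min at 25 °C with compound in 4, 12, 25 or 30 mM potassium buffer. Channels were opened with 70 mM potassium (final) and calcium influx was read by fluorescence (Ex 480/Em 535 nm).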

Experiment [3] deals with human α1H T-type channels (Homo sapiens, UniProt O95180). Description: T-type calcium channel block, whole cell patch clamp, α1H. The conditions noted are these: HEK cells stably expressing human α1H; mainly non-inactivated protocol; values above 10,000 nM represented as 10000. The gist of the method: (§2)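 Whole-cell voltage clamp on stably transfected HEK 293 lines carrying human α1H or α1G. Two voltage protocols used: non-inactivated pre-pulse for resting block, inactivated for voltage-dependent block; test agents perfused locally in external solution (0.1-0.01% DMSO) following ~10 min rest.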
human α1H T-type channels, sequence (O95180 whole entry, the tested form may be a part): as the sequence (O95180 whole entry) above

Experiment [4] concerns the target human α1G T-type channels (Homo sapiens, UniProt O43497). Description: T-type calcium channel block, whole cell patch clamp, α1G. The following applies: HEK cells stably expressing human α1G; mainly non-inactivated protocol; values above 10,000 nM represented as 10000. The gist of the method: as §2
In general terms: In patch-clamp work, channel activity is measured electrically.

In experiment [5] the target is N-type calcium channel subunits (α1B, α2δ, and β3a) (Homo sapiens, UniProt Q00975). Briefly: Block of Cav2.2 channel, whole cell voltage clamp, manual and PatchXpress. The following applies: Table 5; table follows Assay Example 3 (whole cell voltage clamp / PatchXpress); assay not given. The gist of the method: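 Percent block taken as current amplitude ratio with versus without compound, applied in rising doses; IC50 fitted where one cell received multiple doses. Protocol: 50 ms pulses to +20 mV at 0.067 Hz from […] or −90 mV holding; P/n leak subtraction, no junction-potential correction; manual and PatchXpress recordings.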

[6] abbreviates: closed state, read-out: CAv1.2 IC50 Closed.
The mark [7] stands for this setting: inactivated state, read-out: CAv1.2 IC50 Inact.
Setting [8] is: CAv3.2, closed state, read-out: CAv3.2 IC50 Closed.
The mark [9] stands for this setting: CAv3.2, inactivated state, read-out: CAv3.2 IC50 Inact.
Setting [10] is: CAv3.2, ratio closed/inactivated IC50.
Setting [11] is: closed state, read-out: CAv2.2 IC50 Closed.
Where [12] appears, read: inactivated state, read-out: CAv2.2 IC50 Inact.

human α1G T-type channels, sequence (O43497 whole entry): as the sequence (O43497 whole entry) above

For orientation: IC50 means the concentration needed to halve the response being measured. As to `CC(C)([C@H]1C[C@H](NC(=O)c2ccc(Cl)cn2)C1)S(=O)(=O)c1cccc(C(F)(F)F)c1` [Compound 673], the IC50 on CAv1.2 (setting [6]) is at least 10 µM; at CAv1.2 (setting [7]) it was 4.57 µM; on T-type calcium channel [1] (setting [8]), 5.37 µM; on T-type calcium channel [1] (setting [9]) it was 4.33 µM; on T-type calcium channel [2], 6.56 µM; at Human Cav 2.2 channels (setting [11]) it was 1.88 µM. In addition, at Human Cav 2.2 channels (setting [12]), the IC50 was 0.2 µM. In addition, on CAv1.2, the “CAv1.2 IC50 Ratio closed/inact.” value is listed as 2.2. Further, the “CAv3.2 IC50 Ratio closed/inact.” value at T-type calcium channel [1] (setting [10]) amounted to 1.2. Also, the “CAv2.2 IC50 Ratio closed/inact.” value on Human Cav 2.2 channels (ratio closed/inactivated IC50) came out at 9.4.
Regarding `CC(C)([C@H]1C[C@@H](NS(=O)(=O)c2ccc(F)c(C(F)(F)F)c2)C1)S(=O)(=O)c1cccc(C(F)(F)F)c1` [Compound 628], the half-inhibitory concentration (IC50) at CAv1.2 (setting [6]) is at least 10 µM; on CAv1.2 (setting [7]) it was 5.32 µM; at T-type calcium channel [1] (setting [8]), 3.22 µM; on T-type calcium channel [1] (setting [9]) it was 3.26 µM; at T-type calcium channel [2], 2.18 µM; on Human Cav 2.2 channels (setting [11]), 10 µM. Further, the IC50 at Human Cav 2.2 channels (setting [12]) was 1.22 µM. Moreover, the “CAv1.2 IC50 Ratio closed/inact.” value on CAv1.2 is listed as 1.9. Further, the “CAv3.2 IC50 Ratio closed/inact.” value at T-type calcium channel [1] (setting [10]) was determined as 1. In addition, on Human Cav 2.2 channels (ratio closed/inactivated IC50), the “CAv2.2 IC50 Ratio closed/inact.” value turned out to be 8.2.
As for `CC(C)(C1CC(CNC(=O)c2cc(C(F)(F)F)n[nH]2)C1)S(=O)(=O)c1cccc(C(F)(F)F)c1` (stereo not drawn) [Compound 614], the IC50 was 8.03 µM on CAv1.2 (setting [6]); 2.41 µM at CAv1.2 (setting [7]); 7.2 µM on T-type calcium channel [1] (setting [8]); 3.2 µM on T-type calcium channel [1] (setting [9]); at least 10 µM on T-type calcium channel [2]; 2.87 µM at Human Cav 2.2 channels (setting [11]). Besides, the concentration for half-maximal inhibition (IC50) at Human Cav 2.2 channels (setting [12]) is 0.49 µM. Also, the “CAv1.2 IC50 Ratio closed/inact.” value on CAv1.2 came to 3.3. Moreover, on T-type calcium channel [1] (setting [10]), the “CAv3.2 IC50 Ratio closed/inact.” value turned out to be 2.3. Besides, the “CAv2.2 IC50 Ratio closed/inact.” value on Human Cav 2.2 channels (ratio closed/inactivated IC50) came to 5.9.
In the case of `CC(C)([C@H]1C[C@@H](NC(=O)c2ccc(Cl)c(F)c2)C1)S(=O)(=O)c1cc(F)cc(C(F)(F)F)c1` [Compound 589], the half-inhibitory concentration (IC50) is 4.91 µM at CAv1.2 (setting [6]); 1.8 µM at CAv1.2 (setting [7]); 4.14 µM at T-type calcium channel [1] (setting [8]); 1.07 µM at T-type calcium channel [1] (setting [9]); 4.03 µM on T-type calcium channel [2]; 2.37 µM at Human Cav 2.2 channels (setting [11]). On Human Cav 2.2 channels (setting [12]), the IC50 was determined as 0.27 µM. In addition, the “CAv1.2 IC50 Ratio closed/inact.” value on CAv1.2 is given as 2.7. Moreover, at T-type calcium channel [1] (setting [10]), the “CAv3.2 IC50 Ratio closed/inact.” value is reported as 3.9. Besides, the “CAv2.2 IC50 Ratio closed/inact.” value on Human Cav 2.2 channels (ratio closed/inactivated IC50) worked out at 8.8.
In the case of `CC(C)(C1CC(CNC(=O)c2ccnc(C(F)(F)F)n2)C1)S(=O)(=O)c1cccc(C(F)(F)F)c1` (stereo not drawn) [Compound 615], the IC50 was at least 10 µM at CAv1.2 (setting [6]); 5.61 µM on CAv1.2 (setting [7]); at least 10 µM on T-type calcium channel [1] (setting [8]); 7.17 µM at T-type calcium channel [1] (setting [9]); at least 10 µM at T-type calcium channel [2]; 1.37 µM at Human Cav 2.2 channels (setting [11]). Moreover, the IC50 at Human Cav 2.2 channels (setting [12]) worked out at 0.25 µM. The “CAv1.2 IC50 Ratio closed/inact.” value at CAv1.2 was determined as 1.8. The “CAv3.2 IC50 Ratio closed/inact.” value on T-type calcium channel [1] (setting [10]) amounted to 1.4. Also, the “CAv2.2 IC50 Ratio closed/inact.” value on Human Cav 2.2 channels (ratio closed/inactivated IC50) worked out at 5.5.
Regarding `CC(C)([C@H]1C[C@H](NC(=O)c2cc(C(F)(F)F)n[nH]2)C1)S(=O)(=O)c1cc(F)cc(C(F)(F)F)c1` [Compound 594], the IC50 on T-type calcium channel [1] (setting [8]) was 9.23 µM; at T-type calcium channel [1] (setting [9]), 2.35 µM; on T-type calcium channel [2] it was at least 10 µM; at Human Cav 2.2 channels (setting [11]), 6.08 µM; at Human Cav 2.2 channels (setting [12]), 0.52 µM. Besides, at Human Cav 2.2 channels (ratio closed/inactivated IC50), the “CAv2.2 IC50 Ratio closed/inact.” value came out at 11.7.
Turning to `CC(C)([C@H]1C[C@@H](NC(=O)c2ncc(C(F)(F)F)cc2S(C)(=O)=O)C1)S(=O)(=O)c1cc(F)cc(C(F)(F)F)c1` [Compound 584], the 50% inhibitory concentration (IC50) at CAv1.2 (setting [6]) is at least 10 µM; at CAv1.2 (setting [7]), at least 10 µM; on T-type calcium channel [2], at least 10 µM; on Human Cav 2.2 channels (setting [11]), 10 µM; at Human Cav 2.2 channels (setting [12]), 1.7 µM. In addition, the “CAv2.2 IC50 Ratio closed/inact.” value on Human Cav 2.2 channels (ratio closed/inactivated IC50) turned out to be 5.9.
For `N[C@H]1CCCCC1C(=O)NC[C@H]1C[C@H](S(=O)(=O)c2cc(F)cc(C(F)(F)F)c2)C1` (stereo partly drawn) [Compound 711], the IC50 is 10 µM at T-type calcium channel [1] (setting [9]), at least 10 µM at T-type calcium channel [2], 10 µM on Human Cav 2.2 channels (setting [11]) and 5.16 µM at Human Cav 2.2 channels (setting [12]). Besides, at Human Cav 2.2 channels (ratio closed/inactivated IC50), the “CAv2.2 IC50 Ratio closed/inact.” value was determined as 1.9.
Consider `CC(C)([C@H]1C[C@H](NC(=O)c2ncc(C(F)(F)F)cc2S(C)(=O)=O)C1)S(=O)(=O)c1cc(F)cc(C(F)(F)F)c1` [Compound 591], for which the 50% inhibitory concentration (IC50) at CAv1.2 (setting [7]) was at least 10 µM; on T-type calcium channel [2], at least 10 µM; at Human Cav 2.2 channels (setting [11]), 10 µM; at Human Cav 2.2 channels (setting [12]), 1.15 µM. For the same molecule, the “CAv2.2 IC50 Ratio closed/inact.” value at Human Cav 2.2 channels (ratio closed/inactivated IC50) is given as 8.7.
With `NC1(CC(=O)N2CC(CS(=O)(=O)c3cc(F)cc(C(F)(F)F)c3)C2)CCCCC1` [Compound 749], the concentration for half-maximal inhibition (IC50) on T-type calcium channel [1] (setting [8]) is at least 10 µM; on T-type calcium channel [1] (setting [9]), 10 µM; at T-type calcium channel [2], at least 10 µM; at Human Cav 2.2 channels (setting [12]), at least 10 µM. For the same molecule, the “CAv3.2 IC50 Ratio closed/inact.” value at T-type calcium channel [1] (CAv3.2, ratio closed/inact.) turned out to be 1.
For `CC(C)([C@H]1C[C@@H](CNc2ccc(Cl)c(F)c2)C1)S(=O)(=O)c1cccc(C(F)(F)F)c1` [Compound 754], the concentration for half-maximal inhibition (IC50) at T-type calcium channel [1] (setting [9]) was 10 µM; at T-type calcium channel [2], at least 10 µM; at Human Cav 2.2 channels (setting [12]) it was 7.22 µM. The “CAv2.2 IC50 Ratio closed/inact.” value at Human Cav 2.2 channels (ratio closed/inact.) is reported as 1.4.
In the case of `CC1(S(=O)(=O)c2cccc(C(F)(F)F)c2)CCN(C(=O)CNC2CCCCC2)CC1` [Compound 18, 2-(cyclohexylamino)-l-(4-methyl-4-(3-(trifluoromethyl)phenylsulfonyl)piperidin-l-yl)ethanone], the results for the IC50 in experiment [3], in experiment [4] and in experiment [5] were 2.72 µM, 3.06 µM and 390 nM, respectively.
For `O=C(N[C@H]1CC[C@@H](S(=O)(=O)c2cccc(C(F)(F)F)c2)CC1)c1ccc(F)c(Cl)c1` [Compound 131, 3-chloro-4-fluoro-N-((1S,4S)-4-(3-(trifluoromethyl)phenylsulfonyl)cyclohexyl)benzamide] the same measures were 0.61 µM, 0.16 µM and 160 nM.
On the same counts, the results for `O=C(N[C@H]1CC[C@@H](S(=O)(=O)c2cc(F)cc(C(F)(F)F)c2)CC1)c1ccnn1CC(F)(F)F` [Compound 323, N-((1S,4S)-4-(3-fluoro-5-(trifluoromethyl)phenylsulfonyl)cyclohexyl)-1-(2,2,2-trifluoroethyl)-1Hpyrazole-5-carboxamide] are 0.72 µM, 1.35 µM and 2410 nM.
For `CC(C)(C)NC(=O)CNC1(C)CCC(F)(S(=O)(=O)c2cccc(C(F)(F)F)c2)CC1` (stereo not drawn) [Compound 98, N-tert-butyl-2-(4-fluoro-1-methyl-4-(3-(trifluoromethyl)phenylsulfonyl)cyclohexylamino)acetamide] the same measures were over 10 µM, over 10 µM and 680 nM.
Consider `O=C(N[C@H]1C[C@H](CS(=O)(=O)c2cccc(C(F)(F)F)c2)C1)c1ccc(F)c(C(F)(F)F)c1` [Compound 345, 4-fluoro-3-(trifluoromethyl)-N-((1R,3R)-3-((3-(trifluoromethyl)phenylsulfonyl)methyl)cyclobutyl)benzamide], for which the IC50 was determined as 1.93 µM in experiment [3], 5.53 µM in experiment [4] and 580 nM in experiment [5].
For `Cc1cc(NC(=O)CN[C@H]2CC[C@H](S(=O)(=O)c3cccc(C(F)(F)F)c3)CC2)on1` [Compound 74, N-(3-methylisoxazol-5-yl)-2-((1R,4R)-4-(3-(trifluoromethyl)phenylsulfonyl)cyclohexylamino)acetamide] the same measures were 1.21 µM, 1.53 µM and 4950 nM.
